US7459284B2, “Chemiluminescent acridinium compounds and analogues thereof as substrates of hydrolytic enzymes” (Siemens Healthcare Diagnostics Inc., priority 1999, dated 2008)
Where a name gives a salt, the structure may show the parent alone. Read-outs that look alike come from different tables or passages of the source.

Columns and labels:
[1] = Light emission spectra by Fast Spectral Scanning System (FSSS); format: physicochemical
Method: The light emission spectra of compounds 1˜12 and 15˜18 were determined by a Fast Spectral Scanning System (FSSS) of Photo Research (a division of Kollmorgen Corp.) of Burbank, Calif., U.S.A. The experiment was carried out in a dark room. Each compound was dissolved in acetonitrile or N,N-dimethylformamide. The resulting concentrate was diluted with the same solvent to form the working solution, which upon flashing gave a light emission with an adequate intensity. A typical experiment utilized 10˜100 μg or more of the sample in 500 μl of the solvent contained in a 13×100 mm borosilicate test tube. The tube was placed on a test tube rack raised to a proper height. A piece of aluminum foil was placed on the back of the tube to enhance the detectability of the emitted light. The FSSS optical head was placed in front of the tube at an approximate distance of about 130 mm with its lens focused on the liquid in the tube. The sample solution was first treated with 0.35 ml of the Flashing Reagent #1 (Bayer Diagnostics) containing 0.1 N HNO3 and 0.5% H2O2. The room was then darkened, and 0.35 ml of the Flashing Reagent #2 (Bayer Diagnostics) containing 0.25 N NaOH and 0.5% ARQUAD was added to the reaction mixture immediately. (See U.S. Pat. No. 4,927,769, which is commonly assigned and incorporated herein by reference.) The light which was generated instantaneously following the addition of the Reagent #2 was recorded by FSSS for 5 seconds starting from about one second before the Reagent #2 was added.

alkaline phosphatase [2] = target: T1, alkaline phosphatase (Bos taurus, UniProt P19111); experiment: Enzymatic conversion of substrate by alkaline phosphatase (HPLC analysis); format: biochemical; settings: alkaline aqueous medium; about 1 hour
Method: A 1 mM DMF solution of the acridinium 3-enol-phosphate (13) was mixed with 150 μL of 100 mM Tris pH 9 also containing 1 mM MgCl2. Alkaline phosphatase (5 μl of a 2 mg/ml solution) was added and the reaction was incubated at room temperature for ˜1 hour. […] The product was isolated by semi-preparative HPLC using a 7.8×300 mm, C18 column. MALDI-TOF MS of the product indicated this was indeed the keto product (14): m/z 521.36 obs. (520.56 calc.).
A 20 μL DMF solution of the acridan (15) (1.7 mM) was combined with 180 μl of 0.15 M 2-amino-2-methyl-1-propanol pH 10.3 also containing 1 mM magnesium acetate. A clear blue solution was obtained (0.17 mM substrate), which was then treated with alkaline phosphatase (10^−10 moles). The blue color was discharged instantly. […] The reaction mixture was then evaluated by the FSSS to determine the light emission spectrum of the product, which is shown in FIG. 2N. The product was isolated by semi-preparative HPLC. […] (521.56 calc.).

[3] = Quantum yield when flashed with alkaline solution first, then hydrogen peroxide; format: physicochemical; settings: 0.25 N sodium hydroxide with 0.5% AQUARD first, followed by 0.5% hydrogen peroxide
Method: More specifically, when a solution of 1 is treated with 0.25 N sodium hydroxide solution containing 0.5% AQUARD, followed by 0.5% hydrogen peroxide, the quantum yield of 1 is lowered by more than 30 fold. […] Thus, to the advantage of better distinction between the signals of certain chemiluminescent products and their substrates, preferably, said alkaline solution contains sodium hydroxide at concentration of 0.01 to 1.0 N, and AQUARD at concentration of 0.01 to 1%, and said hydrogen peroxide solution contains hydrogen peroxide at concentration of 0.001 to 5%. More preferably, said alkaline solution contains 0.25 N sodium hydroxide and 0.5% AQUARD, and said hydrogen peroxide solution contains 0.5% hydrogen peroxide.

[4] = strong alkaline solution; disclosed in WO 00/09487; cited from earlier work
alkaline phosphatase [5] = target: T1, alkaline phosphatase; experiment: Alkaline phosphatase assay using 2-Phos-DMAE (1) as chemiluminescent substrate; format: biochemical; settings: 0.1 mM substrate, pH 9 Tris, 45° C., 1 hour; R2228P PMT, LL700 filter, 4° C.
Method: With one or more of the above approaches combined, several assay systems based on the principle of detecting the long emission signal generated by the action of AP on 2-Phos-DMAE (1) are constructed, and disclosed in the section of Examples. One example (Example 17) consists of the incubation of AP standards in a substrate solution containing 0.1 mM 2-Phos-DMAE (1), 1 mM magnesium chloride in 100 mM, pH 9 Tris buffer at 45° C. for 1 hour. The light outputs were measured on a luminometer equipped with a red-sensitive PMT (R2228P) and a long pass filter (LL700), which is placed in a 4° C. cold room. The sample was treated first with 0.25 N sodium hydroxide solution containing 0.5% AQUARD, immediately followed by 0.5% hydrogen peroxide.
The substrate solution of 2-Phos-DMAE (1) was prepared at 0.1 mM in 100 mM, pH 9.0 Tris buffer containing 1 mM MgCl2. […] The light outputs were measured for 2 seconds on Bayer Diagnostics Magic Lite Analyzer 1 (MLA-1) equipped with R268 PMT and two LL650 long wavelength pass filters (Corion, Lot No. CFS-002645). […]
According to Example 16, an assay of alkaline phosphatase was carried out by adding 5 μl of the AP standard to 95 μl of the substrate solution. […] The light outputs were measured for 2 seconds on MLA-1 equipped with R2228P PMT and a LL700 long wavelength pass filters, and the unit was pre-cooled in a cold room (4° C).

[6] = FSSS, hydrogen peroxide in strong alkaline solution
[7] = spectral region with signal intensity above 5% of peak height, FSSS scanning limit 380-780 nm, flashed with 0.1 N HNO3/0.5% H2O2 then 0.25 N NaOH/0.5% ARQUAD

T1 sequence (P19111 20-506): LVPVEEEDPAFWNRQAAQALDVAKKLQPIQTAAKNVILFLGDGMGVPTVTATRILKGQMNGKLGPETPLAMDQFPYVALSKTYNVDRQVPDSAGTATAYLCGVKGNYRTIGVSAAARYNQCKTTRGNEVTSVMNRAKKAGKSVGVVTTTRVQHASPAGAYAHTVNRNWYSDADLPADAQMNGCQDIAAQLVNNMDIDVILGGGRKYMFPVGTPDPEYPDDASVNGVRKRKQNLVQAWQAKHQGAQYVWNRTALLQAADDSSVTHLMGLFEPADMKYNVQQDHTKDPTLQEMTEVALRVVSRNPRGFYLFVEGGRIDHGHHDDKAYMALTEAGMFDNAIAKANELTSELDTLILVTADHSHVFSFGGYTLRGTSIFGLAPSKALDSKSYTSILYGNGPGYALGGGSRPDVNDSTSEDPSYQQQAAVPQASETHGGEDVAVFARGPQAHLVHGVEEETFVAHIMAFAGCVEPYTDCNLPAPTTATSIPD

Row | Molecule | Emission Maximum [1, 6] | Emission Range [1, 7] | other results
1 | Cc1cc(C(=O)OCc2ccccc2)cc(C)c1OC(=O)c1c2ccccc2[n+](C)c2ccc(OP(=O)(O)O)cc12 [Compound 3, (2′,6′-dimethyl-4′-benzyloxy-carbonyl)phenyl 2-phosphoryloxy-10-methyl-acridinium-9-carboxylate trifluoroacetate] | 474 nm | 430-600 nm | 
2 | Cc1cc(C(=O)OCc2ccccc2)cc(C)c1OC(=O)c1c2ccccc2[n+](C)c2ccc(O)cc12 [Compound 4, (2′,6′-dimethyl-4′-benzyl-oxycarbonyl)phenyl 2-hydroxy-10-methyl-acridinium-9-carboxylate trifluoroacetate] | 604 nm | 500-780^ nm | 
3 | C[n+]1c2ccccc2c(C(=O)Oc2ccccc2)c2cc(O)ccc21 [Compound 6, phenyl 2-hydroxy-10-methyl-acridinium-9-carboxylate trifluoromethanesulfonate] |  |  | Emission Maximum [1]: 600 nm; Emission Range [1]: 500-780^ nm
4 | COc1ccc2c(c1)c(C(=O)Oc1c(C)cc(C(=O)O)cc1C)c1cc(OP(=O)(O)O)ccc1[n+]2C.[Na+].[Na+] [Compound 9, (2′,6′-dimethyl-4′-carboxyl)phenyl 2-phosphoryloxy-7-methoxy-10-methyl acridinium-9-carboxylate] | 476 nm | 440-600 nm | 
5 | Cc1cc(C(=O)O)cc(C)c1OC(=O)c1c2ccccc2[n+](CCCCS(=O)(=O)[O-])c2ccc(O)cc12 [Compound 8, (2′, 6′-dimethyl-4′-carboxyl)phenyl 2-hydroxy-10-sulfobutyl-acridinium-9-carboxylate] | 594 nm | 500-780^ nm | 
6 | Cc1cc(C(=O)O)cc(C)c1OC(=O)c1c2ccccc2[n+](CCCCS(=O)(=O)[O-])c2ccc(OP(=O)(O)O)cc12 [Compound 7, (2′, 6′-dimethyl-4′-carboxyl)phenyl 2-phosphoryloxy-10-sulfobutyl-acridinium-9-carboxylate] | 474 nm | 430-600 nm | 
7 | COc1ccc2c(c1)c(C(=O)Oc1c(C)cc(C(=O)O)cc1C)c1cc(O)ccc1[n+]2C [Compound 10, (2′,6′-dimethyl-4′-carboxyl)phenyl 2-hydroxy-7-methoxy-10-methyl acridinium-9-carboxylate] | 674 nm | 520-780^ nm | longer emission maxima than unmethoxylated compound 2 ([1]; 2-OH-7-MeO-DMAE vs 2-OH-DMAE): 60-70 nm
8 | (2′,6′-dimethyl-4′-carboxyl)phenyl 3-(β-phosphoryloxy-4′-hydroxystyryl)-10-methyl acridan [Compound 15] | 678 nm | 520-780^ nm | conversion by alkaline phosphatase (alkaline phosphatase [2]): clean conversion
9 | C[n+]1c2ccccc2c(C(=O)Oc2ccc(O)cc2)c2ccccc21 [Compound 18, 4′-hydroxyphenyl 10-methyl acridinium-9-carboxylate trifluoromethanesulfonate] |  |  | Emission Maximum [1]: 452 nm; Emission Range [1]: 410-540 nm
10 | Cc1cc(C(=O)O)cc(C)c1OC(=O)c1c2ccccc2[n+](C)c2ccc(O)cc12 [Compound 2, (2′,6′-dimethyl-4′-carboxyl)phenyl 2-hydroxy-10-methyl-acridinium-9-carboxylate trifluoroacetate] | 602 nm | 500-780^ nm | bathochromic shift of emission maximum ([1]; compound 2 relative to compound 1): 128 nm; lowering of quantum yield [3]: basically not affected; emission λmax [4]: 604 nm
11 | Cc1cc(C(=O)O)cc(C)c1OC(=O)c1c2ccccc2[n+](C)c2ccc(OP(=O)(O)O)cc12.[Na+].[Na+] [Compound 1, (2′,6′-dimethyl-4′-carboxyl)phenyl 10-methyl-2-Phosphoryloxy-acridinium-9-carboxylate bromide] | 478 nm | 430-600 nm | lowering of quantum yield [3]: more than 30 fold; level of alkaline phosphatase detected (alkaline phosphatase [5]): below 1×10^−18 mole; conversion by alkaline phosphatase (alkaline phosphatase [2]): excellent substrate
12 | Cc1cc(C(=O)O)cc(C)c1OC(=O)c1c2ccccc2[n+](C)c2cc(/C(=C/c3ccc(O)cc3)OP(=O)(O)O)ccc12 [Compound 13, (2′,6′-dimethyl-4′-carboxyl)phenyl 3-(β-phosphoryloxy-4′-hydroxystyryl)-10-methyl acridinium-9-carboxylate trifluoromethanesulfonate] |  |  | conversion by alkaline phosphatase (alkaline phosphatase [2]): complete conversion
13 | CN1c2ccccc2C2(Oc3ccccc3OC2=O)c2cc(OP(=O)(O)O)ccc21 (centres unmarked) [Compound 11, 2-Phos-Spiroacridan] | 474 nm | 430-600 nm | 
14 | C[n+]1c2ccccc2c(C(=O)Oc2ccccc2)c2cc(OP(=O)(O)O)ccc21 [Compound 5, phenyl 10-methyl-2-Phosphoryloxy-acridinium-9-carboxylate trifluoroacetate] | 478 nm | 430-600 nm | 
